Measured values: patent EP1038533A1, “MEDICINAL COMPOSITIONS FOR TREATING IMMUNODEFICIENCY DISEASES” (Nippon Kayaku Kabushiki Kaisha, priority 1997, dated 1999)
Where two headings read alike, the source gives them in different places.

How the values were obtained:
[1] = system: HIV (human immunodeficiency virus); assay: Test Example 2: clinical administration of 15-deoxyspergualin injection to five HIV positive carriers; format: in vivo; conditions: 0.15 mg/kg body weight/day i.v. 14 days per course; for fatigue (malaise) of the worst kind: 3 courses
Protocol: (§1) The therapeutic effect of 15-deoxyspergualin for immunodeficiency was clinically investigated by administering the compound to HIV-infected patients. The details are shown below.
To five (5) carriers diagnosed as HIV positive, the 15-deoxyspergualin injection was intravenously administered for consecutive 14 days in a dose of 0.15 mg/kg body weight/day. This cycle was made one course. Then, no drug period was set for 6 weeks followed by repetition with 2 courses with the same interval between the second course and the third course, as well. The CD4^+ cell count, CD4^+ /CD8^+ level and virus load, etc. were measured immediately before and after each course and 6 weeks after the completion of Course 3, respectively.

[2] = system: HIV (human immunodeficiency virus); format: in vivo; conditions: patient
Protocol: as §1
To a patient who was diagnosed as a HIV positive 1 year and 10 months ago, the 15-deoxyspergualin injection of Example 1 later described was intravenously administered for consecutive 15 days in a dose of 0.15 mg/kg body weight/day. This cycle was made one course. Then, no drug period was set for 6 weeks followed by repetition with 2 courses with the same interval between the second course and the third couse, as well.
The CD4^+/CD8^+ level was measured immediately before and after each course and, 3 months and 2 years after the completion of Course 3, namely, 8 measurements in total.

[3] = Case 1, 6 Weeks after completion of Course 3
[4] = Case 1, Immediately after Course 1
[5] = Case 1, Immediately after Course 2
[6] = Case 1, Immediately after Course 3
[7] = Case 1, Immediately before Course 1 (before treatment)
[8] = Case 1, Immediately before Course 2
[9] = Case 1, Immediately before Course 3
[10] = Case 2, 6 Weeks after completion of Course 3
[11] = Case 2, Immediately after Course 1
[12] = Case 2, Immediately after Course 2
[13] = Case 2, Immediately after Course 3
[14] = Case 2, Immediately before Course 1 (before treatment)
[15] = Case 2, Immediately before Course 2
[16] = Case 2, Immediately before Course 3
[17] = Case 3, 6 Weeks after completion of Course 3
[18] = Case 3, Immediately after Course 1
[19] = Case 3, Immediately after Course 2
[20] = Case 3, Immediately after Course 3
[21] = Case 3, Immediately before Course 1 (before treatment)
[22] = Case 3, Immediately before Course 2
[23] = Case 3, Immediately before Course 3
[24] = Case 4, 6 Weeks after completion of Course 3
[25] = Case 4, Immediately after Course 1
[26] = Case 4, Immediately after Course 2
[27] = Case 4, Immediately after Course 3
[28] = Case 4, Immediately before Course 1 (before treatment)
[29] = Case 4, Immediately before Course 2
[30] = Case 4, Immediately before Course 3
[31] = Case 5, 6 Weeks after completion of Course 3
[32] = Case 5, Immediately after Course 1
[33] = Case 5, Immediately after Course 2
[34] = Case 5, Immediately after Course 3
[35] = Case 5, Immediately before Course 1 (before treatment)
[36] = Case 5, Immediately before Course 2
[37] = Case 5, Immediately before Course 3
[38] = throughout the entire period of the treatment

For `N=C(N)NCCCCCCC(=O)NC(O)C(=O)NCCCCNCCCN` (centres unmarked) [15-deoxyspergualin], the “CD4^+ T cell counts” value [1, 3] was 760 µL⁻¹, the “CD4^+/CD8^+ levels” value [1, 3] was 0.93 and the Virus loads [1, 3] was 6000 particles/ml. For the same molecule, the “CD4^+ T cell counts” value [1, 4] was 680 µL⁻¹, the “CD4^+/CD8^+ levels” value [1, 4] was 0.82 and the Virus loads [1, 4] was 8600 particles/ml. For the same molecule, the “CD4^+ T cell counts” value [1, 5] was 740 µL⁻¹, the “CD4^+/CD8^+ levels” value [1, 5] was 0.86 and the Virus loads [1, 5] was 8000 particles/ml. The “CD4^+ T cell counts” value [1, 6] was 750 µL⁻¹, the “CD4^+/CD8^+ levels” value [1, 6] was 0.93 and the Virus loads [1, 6] was 7000 particles/ml. The “CD4^+ T cell counts” value [1, 7] was 680 µL⁻¹, the “CD4^+/CD8^+ levels” value [1, 7] was 0.78 and the Virus loads [1, 7] was 12000 particles/ml. For the same molecule, the “CD4^+ T cell counts” value [1, 8] was 730 µL⁻¹, the “CD4^+/CD8^+ levels” value [1, 8] was 0.80 and the Virus loads [1, 8] was 9000 particles/ml. The “CD4^+ T cell counts” value [1, 9] was 720 µL⁻¹, the “CD4^+/CD8^+ levels” value [1, 9] was 0.85 and the Virus loads [1, 9] was 8200 particles/ml. The “CD4^+ T cell counts” value [1, 10] was 740 µL⁻¹, the “CD4^+/CD8^+ levels” value [1, 10] was 0.78 and the Virus loads [1, 10] was 13000 particles/ml. For the same molecule, the “CD4^+ T cell counts” value [1, 11] was 740 µL⁻¹, the “CD4^+/CD8^+ levels” value [1, 11] was 0.72 and the Virus loads [1, 11] was 13000 particles/ml. The “CD4^+ T cell counts” value [1, 12] was 730 µL⁻¹, the “CD4^+/CD8^+ levels” value [1, 12] was 0.77 and the Virus loads [1, 12] was 14000 particles/ml. The “CD4^+ T cell counts” value [1, 13] was 750 µL⁻¹, the “CD4^+/CD8^+ levels” value [1, 13] was 0.79 and the Virus loads [1, 13] was 14000 particles/ml. The “CD4^+ T cell counts” value [1, 14] was 750 µL⁻¹, the “CD4^+/CD8^+ levels” value [1, 14] was 0.76 and the Virus loads [1, 14] was 15000 particles/ml. For the same molecule, the “CD4^+ T cell counts” value [1, 15] was 750 µL⁻¹, the “CD4^+/CD8^+ levels” value [1, 15] was 0.78 and the Virus loads [1, 15] was 13000 particles/ml. For the same molecule, the “CD4^+ T cell counts” value [1, 16] was 760 µL⁻¹, the “CD4^+/CD8^+ levels” value [1, 16] was 0.80 and the Virus loads [1, 16] was 15000 particles/ml. The “CD4^+ T cell counts” value [1, 17] was 800 µL⁻¹, the “CD4^+/CD8^+ levels” value [1, 17] was 0.90 and the Virus loads [1, 17] was 6000 particles/ml. For the same molecule, the “CD4^+ T cell counts” value [1, 18] was 570 µL⁻¹, the “CD4^+/CD8^+ levels” value [1, 18] was 0.73 and the Virus loads [1, 18] was 11000 particles/ml. The “CD4^+ T cell counts” value [1, 19] was 600 µL⁻¹, the “CD4^+/CD8^+ levels” value [1, 19] was 0.75 and the Virus loads [1, 19] was 7000 particles/ml. The “CD4^+ T cell counts” value [1, 20] was 720 µL⁻¹, the “CD4^+/CD8^+ levels” value [1, 20] was 0.90 and the Virus loads [1, 20] was 6000 particles/ml. For the same molecule, the “CD4^+ T cell counts” value [1, 21] was 550 µL⁻¹, the “CD4^+/CD8^+ levels” value [1, 21] was 0.69 and the Virus loads [1, 21] was 17000 particles/ml. The “CD4^+ T cell counts” value [1, 22] was 590 µL⁻¹, the “CD4^+/CD8^+ levels” value [1, 22] was 0.72 and the Virus loads [1, 22] was 11000 particles/ml. For the same molecule, the “CD4^+ T cell counts” value [1, 23] was 650 µL⁻¹, the “CD4^+/CD8^+ levels” value [1, 23] was 0.84 and the Virus loads [1, 23] was 8000 particles/ml. The “CD4^+ cell counts” value [1, 24] was 910 µL⁻¹, the “CD4^+/CD8^+ levels” value [1, 24] was 0.92 and the Virus loads [1, 24] was 13000 particles/ml. For the same molecule, the “CD4^+ cell counts” value [1, 25] was 710 µL⁻¹, the “CD4^+/CD8^+ levels” value [1, 25] was 0.75 and the Virus loads [1, 25] was 20000 particles/ml. For the same molecule, the “CD4^+ cell counts” value [1, 26] was 760 µL⁻¹, the “CD4^+/CD8^+ levels” value [1, 26] was 0.85 and the Virus loads [1, 26] was 18000 particles/ml. For the same molecule, the “CD4^+ cell counts” value [1, 27] was 850 µL⁻¹, the “CD4^+/CD8^+ levels” value [1, 27] was 0.94 and the Virus loads [1, 27] was 15000 particles/ml. For the same molecule, the “CD4^+ cell counts” value [1, 28] was 640 µL⁻¹, the “CD4^+/CD8^+ levels” value [1, 28] was 0.73 and the Virus loads [1, 28] was 25000 particles/ml. The “CD4^+ cell counts” value [1, 29] was 770 µL⁻¹, the “CD4^+/CD8^+ levels” value [1, 29] was 0.83 and the Virus loads [1, 29] was 20000 particles/ml. The “CD4^+ cell counts” value [1, 30] was 840 µL⁻¹, the “CD4^+/CD8^+ levels” value [1, 30] was 0.90 and the Virus loads [1, 30] was 17000 particles/ml. For the same molecule, the “CD4^+ cell counts” value [1, 31] was 900 µL⁻¹, the “CD4^+/CD8^+ levels” value [1, 31] was 0.90 and the Virus loads [1, 31] was 6000 particles/ml. The “CD4^+ cell counts” value [1, 32] was 750 µL⁻¹, the “CD4^+/CD8^+ levels” value [1, 32] was 0.80 and the Virus loads [1, 32] was 6000 particles/ml. The “CD4^+ cell counts” value [1, 33] was 820 µL⁻¹, the “CD4^+/CD8^+ levels” value [1, 33] was 0.83 and the Virus loads [1, 33] was 6500 particles/ml. For the same molecule, the “CD4^+ cell counts” value [1, 34] was 890 µL⁻¹, the “CD4^+/CD8^+ levels” value [1, 34] was 0.87 and the Virus loads [1, 34] was 6000 particles/ml. The “CD4^+ cell counts” value [1, 35] was 780 µL⁻¹, the “CD4^+/CD8^+ levels” value [1, 35] was 0.79 and the Virus loads [1, 35] was 6000 particles/ml. For the same molecule, the “CD4^+ cell counts” value [1, 36] was 810 µL⁻¹, the “CD4^+/CD8^+ levels” value [1, 36] was 0.81 and the Virus loads [1, 36] was 7000 particles/ml. For the same molecule, the “CD4^+ cell counts” value [1, 37] was 880 µL⁻¹, the “CD4^+/CD8^+ levels” value [1, 37] was 0.85 and the Virus loads [1, 37] was 6500 particles/ml. The “fatigue (malaise) of the worst kind” value ([1]; Cases 1, 3 and 4) was “improved”, the “fatigue (malaise) of the worst kind” value ([1]; Cases 2 and 5) was “no change” and the “CD4^+/CD8^+ level” value ([2]; 0.15 mg/kg body weight/day i.v. 15 days per course, 2 Years after completion of Course 3) was 0.90. For the same molecule, the “CD4^+/CD8^+ level” value ([2]; 0.15 mg/kg body weight/day i.v. 15 days per course, 3 Months after completion of Course 3) was 0.93, the “CD4^+/CD8^+ level” value ([2]; 0.15 mg/kg body weight/day i.v. 15 days per course, Immediately after Course 1) was 0.72 and the “CD4^+/CD8^+ level” value ([2]; 0.15 mg/kg body weight/day i.v. 15 days per course, Immediately after Course 2) was 0.75. For the same molecule, the “CD4^+/CD8^+ level” value ([2]; 0.15 mg/kg body weight/day i.v. 15 days per course, Immediately after Course 3) was 0.84, the “CD4^+/CD8^+ level” value ([2]; 0.15 mg/kg body weight/day i.v. 15 days per course, Immediately before Course 1 (before treatment)) was 0.68 and the “CD4^+/CD8^+ level” value ([2]; 0.15 mg/kg body weight/day i.v. 15 days per course, Immediately before Course 2) was 0.78. The “CD4^+/CD8^+ level” value ([2]; 0.15 mg/kg body weight/day i.v. 15 days per course, Immediately before Course 3) was 0.87, the “decrease of CD4^+/CD8^+ level immediately after Courses 2 and 3 versus immediately before the courses” value ([2]; 0.15 mg/kg body weight/day i.v. 15 days per course, attributed to weak bone marrow suppression) was 0.03 and the complaint of fatigue ([2]; 0.15 mg/kg body weight/day i.v. 15 days, after Course 1 was finished) was “disappeared completely”. For the same molecule, the leucocyte count [2, 38] was “approximately 6200” and the other side effect [2, 38] was “no other side effect was observed at all”.
